Experimental data as given in patent US9719981B2, “RAC1 inhibitors for the treatment of alport glomerular disease” (Father Flanagan's Boys' Home, priority 2012, dated 2017).

Columns and labels:
FAK [1] = experiment: pFAK397 western blot in cultured podocytes -/+ TAE226; type: cell-based, mouse; details: 20 μM TAE226, podocytes on placental laminin
Method: Basal Lamina and −/+ TAE226 pFAK^397 Western Blots. 10 day differentiated GEC's were cultured in 0.5% FCS for 2 days and plated onto tissue culture dishes previously coated with 50 μg/ml Collagen Type 1 Rat Tail (BD Biosciences) and 2 μg/cm^2 Placental Laminin (Sigma) in 0.1% BSA containing media. For Basal Lamina experiment, additional dishes were coated with Collagen Type 1 and 1.25 μg/cm^2 EHS Laminin (BD Biosciences) or […] Merosin (Chemicon, Temecula Calif.). For −/+ TAE266 experiment, 20 μM TAE226 was included in the media. Protein was collected 15 hours later in M-PER (Thermo Scientific) as above and Western Blot run as described below.
(§1) Immunoblotting. Ten to fifteen micrograms, of cellular protein, was resolved in a 10% SDS-PAGE and then electrotransfered to PVDF membrane. The membranes were cut in half and the upper half (250 kDa to 75 kDa) used for pFAK/tFAK immunoblotting while the bottom half used for β-actin immunoblotting (loading control). Conditions for pFAK detection: the membrane was blocked in milk blocking solution (5% milk containing 0.2% Tween-20 in PBS) for 1 hour at room temperature with constant shaking and incubated overnight at 4° C. with anti-pFAK 1:1,000 in BSA blocking solution (1% BSA containing 0.2% Tween-20 in PBS). […]

FAK [2] = experiment: pFAK397 western blot in primary mesangial cells with TAE226; type: cell-based, mouse; details: 0.5 and 1.0 μM TAE226, five hours
Method: Primary Mesangial Cells were derived and characterized as previously described (Cosgrove et al., 2008, Am J Pathol; 172: 761-773). Three independent Transwell Migration Assays were performed using 0.5 μM TAE226 as previously described. For pFAK Western Blot^397, cells were maintained on 1% FCS-containing media for two days, overnight in 0.1% BSA (Fraction V, Roche Diagnostics, Mannheim, Germany) and TAE226 added to 0.5 and 1.0 μM. After five hours protein was collected in M-PER™ (Thermo Scientific, Rockford, Ill.) containing Protease Inhibitor Cocktail P8340 at 1:100 (Sigma, St. Louis, Mo.), 5 mM Sodium Fluoride (Sigma), and 2 mM Sodium Orthovanadate (Sigma) and Western Blots run as described below.
as §1

## CNC(=O)c1ccccc1Nc1nc(Nc2ccc(N3CCOCC3)cc2OC)ncc1Cl [TAE226]
FAK [1]
  Activation state of FAK (pFAK397) in cultured podocytes: reduced
FAK [2]
  pFAK activation in mesangial cells: blocked pFAK activation in a dose-dependent manner
